Holding throughout (test): relative viability (nuclei count vs DMSO), 5 days (fraction); higher = more cells survive
Compound in experiment [1]: C1=CC2=C(C=C(C(=C2N=C1)O)N=NC3=CC4=C(C=C3)C=C(C=C4)S(=O)(=O)O)S(=O)(=O)O + Cc1cc(Nc2cc(N3CCN(C)CC3)nc(Sc3ccc(NC(=O)C4CC4)cc3)n2)n[nH]1 [Tozasertib] (partner 0.1 µM)
The method in brief:
(§1)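 Cells from lung cancer lines were seeded into 1536-well plates and, one day later, dosed by pin tool. Treatments were either a single drug or a fixed dose of an anchor drug with five library-drug doses (not always all listed) in √10 steps. After 5 days, nuclei were stained in a one-step fixation (final 0.05% Triton X-100, 1% formaldehyde, 1 ug/ml Hoechst) and counted on 4× images, and relative viability is the treated-to-vehicle nuclei ratio, as the median of duplicate plates.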

Compound in experiment [2]: O=C(NC1CCNCC1)c1n[nH]cc1NC(=O)c1c(Cl)cccc1Cl [AT-7519] + CC(C)C[C@H](NC(=O)[C@H](Cc1ccccc1)NC(=O)c1cnccn1)B(O)O [Bortezomib] (partner 0.002 µM)
The method in brief: as §1

Compound in experiment [3]: O=C(NC1CCNCC1)c1n[nH]cc1NC(=O)c1c(Cl)cccc1Cl [AT-7519] + COc1cc2c(Oc3ccc(NC(=O)C4(C(=O)Nc5ccc(F)cc5)CC4)cc3F)ccnc2cc1OCCCN1CCOCC1 [Foretinib] (partner 0.25 µM)
A digest of the protocol: as §1

Compound in experiment [4]: O=C(NC1CCNCC1)c1n[nH]cc1NC(=O)c1c(Cl)cccc1Cl [AT-7519] + C[C@]1(O)C[C@@H](c2nc(-c3ccc4ccc(-c5ccccc5)nc4c3)c3c(N)nccn32)C1 [Linsitinib] (partner 1 µM)
A digest of the protocol:
as §1

Turning to NCI-H23, the relative viability is 0.375 in experiment [1] (first compound 0.08 µM); 0.323 in experiment [1] (first compound 0.253 µM); 0.417 in experiment [1] (first compound 0.8 µM); 0.388 in experiment [1] (first compound 2.53 µM); 0.401 in experiment [1] (first compound 8 µM); 0.983 in experiment [2] (first compound 0.01 µM). Besides, the relative viability in experiment [2] (first compound 0.03162 µM) was 1.04; in experiment [2] (first compound 0.3162 µM), 0.852; in experiment [2] (first compound 1 µM), 0.504; in experiment [3] (first compound 0.01 µM) it was 0.928; in experiment [3] (first compound 0.03162 µM), 0.981; in experiment [3] (first compound 0.3162 µM), 0.887. Moreover, the relative viability was 0.461 in experiment [3] (first compound 1 µM); 0.591 in experiment [4] (first compound 0.01 µM); 0.619 in experiment [4] (first compound 0.03162 µM); 0.523 in experiment [4] (first compound 0.3162 µM); 0.255 in experiment [4] (first compound 1 µM).

As to NCI-H322M, the relative viability in experiment [1] (first compound 0.08 µM) was 0.541; in experiment [1] (first compound 0.253 µM), 0.468; in experiment [1] (first compound 0.8 µM), 0.433; in experiment [1] (first compound 2.53 µM), 0.496; in experiment [1] (first compound 8 µM) it was 0.47; in experiment [2] (first compound 0.01 µM), 1.2. Also, the relative viability in experiment [2] (first compound 0.03162 µM) came to 1.26; in experiment [2] (first compound 0.3162 µM), 1.27; in experiment [2] (first compound 1 µM) it was 1.52; in experiment [3] (first compound 0.01 µM), 1.01; in experiment [3] (first compound 0.03162 µM), 0.932; in experiment [3] (first compound 0.3162 µM), 0.511. Also, the relative viability was 0.456 in experiment [3] (first compound 1 µM); 0.95 in experiment [4] (first compound 0.01 µM); 0.926 in experiment [4] (first compound 0.03162 µM); 0.962 in experiment [4] (first compound 0.3162 µM); 0.946 in experiment [4] (first compound 1 µM).

As for NCI-H441, the relative viability in experiment [1] (first compound 0.08 µM) came to 0.636; in experiment [1] (first compound 0.253 µM) it was 0.685; in experiment [1] (first compound 0.8 µM) it was 0.644; in experiment [1] (first compound 2.53 µM), 0.712; in experiment [1] (first compound 8 µM), 0.605; in experiment [2] (first compound 0.01 µM), 0.449. For the same cell line, the relative viability in experiment [2] (first compound 0.03162 µM) amounted to 0.394; in experiment [2] (first compound 0.3162 µM) it was 0.671; in experiment [2] (first compound 1 µM), 0.497; in experiment [3] (first compound 0.01 µM) it was 1.04; in experiment [3] (first compound 0.03162 µM), 1.01; in experiment [3] (first compound 0.3162 µM), 0.949. Also, the relative viability in experiment [3] (first compound 1 µM) turned out to be 0.63; in experiment [4] (first compound 0.01 µM) it was 0.553; in experiment [4] (first compound 0.03162 µM), 0.482; in experiment [4] (first compound 0.3162 µM), 0.487; in experiment [4] (first compound 1 µM), 0.395.

Take NCI-H460: the relative viability in experiment [1] (first compound 0.08 µM) was 0.627; in experiment [1] (first compound 0.253 µM), 0.381; in experiment [1] (first compound 0.8 µM) it was 0.559; in experiment [1] (first compound 2.53 µM) it was 0.543; in experiment [1] (first compound 8 µM), 0.4; in experiment [2] (first compound 0.01 µM), 1.05. In addition, the relative viability in experiment [2] (first compound 0.03162 µM) amounted to 0.91; in experiment [2] (first compound 0.3162 µM), 0.533; in experiment [2] (first compound 1 µM), 0.046; in experiment [3] (first compound 0.01 µM), 1.05; in experiment [3] (first compound 0.03162 µM), 0.821; in experiment [3] (first compound 0.3162 µM), 1.05. Besides, the relative viability in experiment [3] (first compound 1 µM) was determined as 0.233; in experiment [4] (first compound 0.01 µM), 0.712; in experiment [4] (first compound 0.03162 µM), 0.63; in experiment [4] (first compound 0.3162 µM), 0.159; in experiment [4] (first compound 1 µM) it was 0.0184.

Take NCI-H520: the relative viability in experiment [1] (first compound 0.08 µM) amounted to 0.428; in experiment [1] (first compound 0.253 µM), 0.454; in experiment [1] (first compound 0.8 µM), 0.439; in experiment [1] (first compound 2.53 µM), 0.369; in experiment [1] (first compound 8 µM), 0.42; in experiment [2] (first compound 0.01 µM), 0.745. For the same cell line, the relative viability in experiment [2] (first compound 0.03162 µM) came out at 0.628; in experiment [2] (first compound 0.3162 µM), 0.413; in experiment [2] (first compound 1 µM), 0.323; in experiment [3] (first compound 0.01 µM), 0.922; in experiment [3] (first compound 0.03162 µM), 0.624; in experiment [3] (first compound 0.3162 µM) it was 0.718. The relative viability in experiment [3] (first compound 1 µM) came out at 0.593; in experiment [4] (first compound 0.01 µM) it was 1.01; in experiment [4] (first compound 0.03162 µM), 0.88; in experiment [4] (first compound 0.3162 µM), 0.82; in experiment [4] (first compound 1 µM) it was 0.454.

Regarding NCI-H596, the relative viability in experiment [1] (first compound 0.08 µM) is 1.16; in experiment [1] (first compound 0.253 µM), 0.926; in experiment [1] (first compound 0.8 µM) it was 0.834; in experiment [1] (first compound 2.53 µM) it was 0.818; in experiment [1] (first compound 8 µM) it was 1.04; in experiment [2] (first compound 0.01 µM) it was 1.08. The relative viability in experiment [2] (first compound 0.03162 µM) amounted to 1.13; in experiment [2] (first compound 0.3162 µM), 0.882; in experiment [2] (first compound 1 µM), 1.03; in experiment [3] (first compound 0.01 µM) it was 0.922; in experiment [3] (first compound 0.03162 µM) it was 0.834; in experiment [3] (first compound 0.3162 µM), 0.897. In addition, the relative viability in experiment [3] (first compound 1 µM) amounted to 0.731; in experiment [4] (first compound 0.01 µM), 1.04; in experiment [4] (first compound 0.03162 µM) it was 0.91; in experiment [4] (first compound 0.3162 µM) it was 0.973; in experiment [4] (first compound 1 µM), 0.897.

On to NCI-H647, for which the relative viability in experiment [1] (first compound 0.08 µM) was found to be 0.49; in experiment [1] (first compound 0.253 µM), 0.279; in experiment [1] (first compound 0.8 µM), 0.308; in experiment [1] (first compound 2.53 µM), 0.231; in experiment [1] (first compound 8 µM), 0.267; in experiment [2] (first compound 0.01 µM) it was 1.04. Besides, the relative viability amounted to 0.909 in experiment [2] (first compound 0.03162 µM); 1.21 in experiment [2] (first compound 0.3162 µM); 0.564 in experiment [2] (first compound 1 µM); 1.27 in experiment [3] (first compound 0.01 µM); 1.21 in experiment [3] (first compound 0.03162 µM); 0.985 in experiment [3] (first compound 0.3162 µM). Further, the relative viability in experiment [3] (first compound 1 µM) was found to be 0.889; in experiment [4] (first compound 0.01 µM), 0.982; in experiment [4] (first compound 0.03162 µM), 1.13; in experiment [4] (first compound 0.3162 µM), 1.38; in experiment [4] (first compound 1 µM), 0.48.

Turning to NCI-H650, the relative viability in experiment [1] (first compound 0.08 µM) amounted to 0.703; in experiment [1] (first compound 0.253 µM), 0.671; in experiment [1] (first compound 0.8 µM) it was 0.749; in experiment [1] (first compound 2.53 µM), 0.737; in experiment [1] (first compound 8 µM), 0.79; in experiment [2] (first compound 0.01 µM), 0.827. Also, the relative viability in experiment [2] (first compound 0.03162 µM) was 0.75; in experiment [2] (first compound 0.3162 µM), 0.86; in experiment [2] (first compound 1 µM) it was 0.975; in experiment [3] (first compound 0.01 µM), 1.04; in experiment [3] (first compound 0.03162 µM) it was 0.923; in experiment [3] (first compound 0.3162 µM), 1.01. In addition, the relative viability was 1.08 in experiment [3] (first compound 1 µM); 0.854 in experiment [4] (first compound 0.01 µM); 0.791 in experiment [4] (first compound 0.03162 µM); 1.04 in experiment [4] (first compound 0.3162 µM); 0.693 in experiment [4] (first compound 1 µM).

The values above are taken from the supplement of paper PMC10307832.
